Test results taken from patent US8492374B2, “Azaazulene compounds” (Industrial Technology Research Institute, priority 2009, dated 2013).

What was measured:
FLT-3 kinase = target: T1, FLT-3 kinase (Homo sapiens, UniProt P36888); experiment: FLT-3 kinase DELFIA assay (HTScan FLT-3 Kinase Assay Kit); assay type: biochemical; details: 20 uM ATP; for inhibition at 0.1 µM: 0.1 uM compound; for inhibition at 1 µM: 1 uM compound
T1 construct: human FLT-3 (Arg571-Ser993); GST (N); purchased Cell Signaling Technology HTScan FLT-3 Kinase Assay Kit; host or cells: baculovirus expression system
T1 sequence (P36888 571-993): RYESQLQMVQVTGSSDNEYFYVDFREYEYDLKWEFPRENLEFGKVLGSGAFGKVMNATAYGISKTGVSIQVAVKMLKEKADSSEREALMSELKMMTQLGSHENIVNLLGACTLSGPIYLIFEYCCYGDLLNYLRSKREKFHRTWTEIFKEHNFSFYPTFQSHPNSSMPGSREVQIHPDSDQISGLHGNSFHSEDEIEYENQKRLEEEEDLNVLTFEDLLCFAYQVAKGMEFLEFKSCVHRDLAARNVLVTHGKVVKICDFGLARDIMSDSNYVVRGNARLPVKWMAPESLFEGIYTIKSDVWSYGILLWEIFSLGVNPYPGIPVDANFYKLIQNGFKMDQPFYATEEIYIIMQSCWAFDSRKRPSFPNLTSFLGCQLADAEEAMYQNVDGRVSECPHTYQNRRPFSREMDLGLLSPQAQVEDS
Method: Azaazulene Compounds of this invention were treated for their efficacy in inhibiting activities of FLT-3, c-KIT and KDR kinases by biochemical DELFIA (Dissociation Enhanced Lanthanide FIA) assays according to the procedure described below. The assays were conducted by, Division of Cell Engineering, Biomedical Engineering Research Laboratories, Industrial Technology Research Institute, Bldg. 53, 195, sec. 4, Chung Hsing Rd. Chutung, Hsinchu, Taiwan 310, R.O.C.
The FLT-3 assay was conducted following the protocol described in Protocol for HTScang FLT-3 Kinase Assay Kit (Cell Signaling Technology®).

[1] = tested on: MV4-11 (FLT3-ITD) cell line; experiment: In vitro cell activity assay (MTT cell viability, 72 hours); assay type: cell-based; details: Homo sapiens, 72 hours at 37° C., 10,000 cells per well, read-out: IC50 against MV4-11
Method: Human MV4-11 (FLT3-ITD) cell line was obtained from American Tissue Culture Collection (ATCC number: CRL-9591). The cell line was cultured with RPMI 1640 containing 10% fetal bovine serum, 1 mmol/L sodium pyruvate and 10 mmol/L HEPES (pH 7.4). The cell was grown and maintained in a humidified atmosphere at 37° C. and 5% carbon dioxide.
MV4-11 cell was plated in 96-well microtiter plates (10,000 cells per well) and serial dilutions of indicated compounds were added. At the end of the incubation period (72 hours at 37° C.), cell viability was determined by a tetrazolium dye, MTT (3-(4,5-dimethylthiazol-2-yl)-2,5-diphenyl tetrazolium bromide) (Promega, Madison, Wis.). The formazan crystals were dissolved by DMSO, and the absorbance at a wavelength of 600 nm was recorded using an ELISA plate reader. IC50 values were calculated using nonlinear regression and defined as the concentration needed for a 50% reduction in absorbance of treated versus untreated control cells.

Compound	inhibition at 0.1 µM (FLT-3 kinase) [%]	inhibition at 1 µM (FLT-3 kinase) [%]	IC50 [1] [nM]
O=Cc1ccc(N2CCN(c3ccc4[nH]c(-c5c6cccccc-6[nH]c5=O)nc4c3)CC2)o1 [Compound B59]	55.6	96.1	146
O=c1[nH]c2cccccc-2c1-c1nc2cc(N3CCN(c4ccncc4)CC3)ccc2[nH]1 [Compound B60]	71.7	99.1	5.9
O=c1[nH]c2cccccc-2c1-c1nc2cc(N3CCN(c4c(F)cncc4F)CC3)ccc2[nH]1 [Compound B61]	17.7	74.3	270
Nc1cc(N2CCN(c3ccc4[nH]c(-c5c6cccccc-6[nH]c5=O)nc4c3)CC2)ccn1 [Compound B62]	9.5	13.7	> 5000
O=c1[nH]c2cccccc-2c1-c1nc2cc(N3CCN(c4cccnc4)CC3)ccc2[nH]1 [Compound B63]	18.9	33.4	473
O=c1[nH]c2cccccc-2c1-c1nc2cc(N3CCN(c4ccccn4)CC3)ccc2[nH]1 [Compound B64]	29.5	79.2	250
O=c1[nH]c2cccccc-2c1-c1nc2cc(N3CCN(c4ncccc4[N+](=O)[O-])CC3)ccc2[nH]1 [Compound B65]	16.3	60.5	278
O=c1[nH]c2cccccc-2c1-c1nc2cc(N3CCN(c4ncccc4Cl)CC3)ccc2[nH]1 [Compound B66]	20.3	55.5	466
Cc1cc(N2CCN(c3ccc4[nH]c(-c5c6cccccc-6[nH]c5=O)nc4c3)CC2)nc(N(C)C)n1 [Compound B67]	43.3	95.3	77.8
O=c1[nH]c2cccccc-2c1-c1nc2cc(N3CCN(c4ncccn4)CC3)ccc2[nH]1 [Compound B68]	39.1	80.7	234
O=c1[nH]c2cccccc-2c1-c1nc2cc(N3CCN(c4cnccn4)CC3)ccc2[nH]1 [Compound B69]	29.3	77.3	100 to 500
CN1CCN(C(=O)c2ccc3[nH]c(-c4c5cccccc-5[nH]c4=O)nc3c2)CC1 [Compound B71]	6.8	39.3	957
O=C(c1ccc2[nH]c(-c3c4cccccc-4[nH]c3=O)nc2c1)N1CCN(c2ccncc2)CC1 [Compound B72]	36.8	85.5	50 to 100
O=C(Nc1ccc(N2CCCC2)cn1)c1ccc2[nH]c(-c3c4cccccc-4[nH]c3=O)nc2c1 [Compound B73]	23.7	22.3	~1000
CN1CCCN(C(=O)c2ccc3[nH]c(-c4c5cccccc-5[nH]c4=O)nc3c2)CC1 [Compound B74]	27.1	64	163
O=C(Nc1ccc2[nH]c(-c3c4cccccc-4[nH]c3=O)nc2c1)c1ccncc1 [Compound B75]	13.4	37.1	~1000
O=c1[nH]c2cccccc-2c1-c1nc2cc(N3CCCNCC3)ccc2[nH]1 [Compound B76]	50	92.9	25.6
CN1CCCN(c2ccc3[nH]c(-c4c5cccccc-5[nH]c4=O)nc3c2)CC1 [Compound B77]	47.1	94.3	39.2
O=c1[nH]c2cccccc-2c1-c1nc2cc(N3CCCN(CCF)CC3)ccc2n1CCF [Compound B78]	20.3	39.4	100 to 500
O=c1[nH]c2cccccc-2c1-c1nc2cc(N3CCCNCC3)ccc2n1CCF [Compound B79]	22.3	36.6	346
CN1CCCN(c2cc3nc(-c4c5cccccc-5[nH]c4=O)[nH]c3cc2F)CC1 [Compound B85]	44.4	89.8	131

Compound	inhibition at 0.1 µM (FLT-3 kinase) [%]	inhibition at 1 µM (FLT-3 kinase) [%]	IC50 [1] [nM]
O=C(O)CCC(=O)N1CCCN(c2ccc3[nH]c(-c4c5cccccc-5[nH]c4=O)nc3c2)CC1 [Compound B89]	20	56.7	> 5000
CS(=O)(=O)N1CCCN(c2ccc3[nH]c(-c4c5cccccc-5[nH]c4=O)nc3c2)CC1 [Compound B90]	23	59.2	504
CN(C)S(=O)(=O)N1CCCN(c2ccc3[nH]c(-c4c5cccccc-5[nH]c4=O)nc3c2)CC1 [Compound B91]	14.3	42.5	876
O=C(c1ccc2[nH]c(-c3c4cccccc-4[nH]c3=O)nc2c1)N1CCCN(c2ccncc2)CC1 [Compound B92]	17.9	51.4	910
O=c1[nH]c2cccccc-2c1-c1nc2cc(N3CCCN(c4ccncc4)CC3)ccc2[nH]1 [Compound B93]	44.2	89.4	129
O=c1[nH]c2cccccc-2c1-c1nc2cc(N3CCCN(c4cccc(Cl)n4)CC3)ccc2[nH]1 [Compound B96]	10.9	35.7	1000 to 5000
O=c1[nH]c2cccccc-2c1-c1nc2cc(N3CCCN(c4ncccn4)CC3)ccc2[nH]1 [Compound B98]	17.8	69.5	418
O=c1[nH]c2cccccc-2c1-c1nc2cc(N3CCCN(c4cnccn4)CC3)ccc2[nH]1 [Compound B99]	17	51.8	600
Cc1ccc(N2CCCN(c3ccc4[nH]c(-c5c6cccccc-6[nH]c5=O)nc4c3)CC2)nn1 [Compound B100]	9.1	20.2	1000 to 5000
CN(C)C1CCN(c2ccc3[nH]c(-c4c5cccccc-5[nH]c4=O)nc3c2)CC1 [Compound B101]	46.8	90.7	39.7
O=c1[nH]c2cccccc-2c1-c1nc2cc(N3CCC(N4CCCCC4)CC3)ccc2[nH]1 [Compound B102]	22.8	67.8	115
O=c1[nH]c2cccccc-2c1-c1nc2cc(N3CCC(N4CCOCC4)CC3)ccc2[nH]1 [Compound B103]	36.5	87.4	42
O=c1[nH]c2cccccc-2c1-c1nc2cc(N3CCC(N4CCCC4)CC3)ccc2[nH]1 [Compound B104]	28.3	84.1	69.1
CN1CCN(C2CCN(c3ccc4[nH]c(-c5c6cccccc-6[nH]c5=O)nc4c3)CC2)CC1 [Compound B105]	38.7	86	177
CCC1CCN(c2ccc3[nH]c(-c4c5cccccc-5[nH]c4=O)nc3c2)CC1 [Compound B106]	24.2	76.2	315
NC(=O)C1CCN(c2ccc3[nH]c(-c4c5cccccc-5[nH]c4=O)nc3c2)CC1 [Compound B108]	16	86.5	89.1
CCOCC1CCN(c2ccc3[nH]c(-c4c5cccccc-5[nH]c4=O)nc3c2)CC1 [Compound B109]	17.3	35.2	~1000
O=c1[nH]c2cccccc-2c1-c1nc2cc(N3CCOCC3)ccc2[nH]1 [Compound B111]	24.5	75	169
CN1CCN(S(=O)(=O)c2ccc3[nH]c(-c4c5cccccc-5[nH]c4=O)nc3c2)CC1 [Compound B112]	9.5	21.3	1000 to 5000
CN1CCCN(S(=O)(=O)c2ccc3[nH]c(-c4c5cccccc-5[nH]c4=O)nc3c2)CC1 [Compound B113]	14.8	42	100 to 500
O=C(c1ccccc1)c1ccc2[nH]c(-c3c4cccccc-4[nH]c3=O)nc2c1 [Compound B114]	10	16.3	1000 to 5000
